Reference: ChEMBL document CHEMBL5154811, “Discovery of SPH5030, a Selective, Potent, and Irreversible Tyrosine Kinase Inhibitor for HER2-Amplified and HER2-Mutant Cancer Treatment” (J Med Chem, 2022)

Columns and labels:
[1] = biological target: Receptor tyrosine-protein kinase erbB-2 (Homo sapiens, UniProt P04626); assay: Inhibition of wild type human GST-tagged HER2 (676 to end residues) expressed in baculovirus infected Sf9 cells incubated for 30 mins in presence of ATP by HTRF analysis
BT-474 = assay: Antiproliferative activity against human BT-474 cells assessed as inhibition of cell growth incubated for 72 hrs by Celltiter-Glo assay; format: functional, cell-based; conditions: BT-474, 72 h
[2] = Metabolic stability in human liver microsomes assessed as intrinsic clearance at 1 uM preincubated for 5 mins followed by NADPH addition by LC-MS/MS analysis; format: ADME, Microsome; conditions: read-out: CLH
[3] = biological target: Epidermal growth factor receptor (Homo sapiens, UniProt P00533); assay: Inhibition of wild type human N-terminal GST tagged EGFR (669 to 1210 residues) expressed in Sf21 insect cells incubated for 30 mins in presence of ATP by HTRF analysis
Chain of Epidermal growth factor receptor (P00533 whole entry, the tested form may be a part): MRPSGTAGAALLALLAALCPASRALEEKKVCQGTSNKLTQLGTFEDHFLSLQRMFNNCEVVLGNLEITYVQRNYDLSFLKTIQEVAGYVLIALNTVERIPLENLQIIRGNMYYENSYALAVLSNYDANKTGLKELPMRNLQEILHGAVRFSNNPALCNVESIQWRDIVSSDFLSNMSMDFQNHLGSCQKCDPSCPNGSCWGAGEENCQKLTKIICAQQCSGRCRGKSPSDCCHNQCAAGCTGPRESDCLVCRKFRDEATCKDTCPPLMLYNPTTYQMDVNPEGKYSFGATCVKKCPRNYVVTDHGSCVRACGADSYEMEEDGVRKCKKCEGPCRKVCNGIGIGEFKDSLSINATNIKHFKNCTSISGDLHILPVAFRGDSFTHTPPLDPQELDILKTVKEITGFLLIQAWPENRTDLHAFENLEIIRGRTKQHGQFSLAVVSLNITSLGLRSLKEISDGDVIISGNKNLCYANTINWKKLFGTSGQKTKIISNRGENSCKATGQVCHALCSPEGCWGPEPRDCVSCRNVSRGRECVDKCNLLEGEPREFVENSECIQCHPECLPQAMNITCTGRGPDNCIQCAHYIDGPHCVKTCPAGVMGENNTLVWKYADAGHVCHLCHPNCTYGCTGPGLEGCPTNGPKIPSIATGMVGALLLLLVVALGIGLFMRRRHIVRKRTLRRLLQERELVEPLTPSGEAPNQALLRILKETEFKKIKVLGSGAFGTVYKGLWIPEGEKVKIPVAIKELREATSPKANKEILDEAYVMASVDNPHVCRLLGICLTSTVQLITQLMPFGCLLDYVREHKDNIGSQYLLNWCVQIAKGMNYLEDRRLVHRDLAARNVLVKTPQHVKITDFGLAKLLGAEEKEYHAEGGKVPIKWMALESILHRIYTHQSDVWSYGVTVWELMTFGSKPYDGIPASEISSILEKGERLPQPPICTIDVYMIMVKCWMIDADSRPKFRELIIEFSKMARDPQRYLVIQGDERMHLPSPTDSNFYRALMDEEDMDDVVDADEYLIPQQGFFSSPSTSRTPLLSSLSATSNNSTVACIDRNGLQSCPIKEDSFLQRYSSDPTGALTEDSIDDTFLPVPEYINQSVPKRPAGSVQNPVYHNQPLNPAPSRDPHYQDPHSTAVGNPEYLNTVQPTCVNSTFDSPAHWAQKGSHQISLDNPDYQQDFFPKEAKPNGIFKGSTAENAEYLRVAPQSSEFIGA

[4] = Metabolic stability in human liver microsomes assessed as half life at 1 uM preincubated for 5 mins followed by NADPH addition by LC-MS/MS analysis; format: ADME, Microsome
NCI-N87 = assay: Antiproliferative activity against human NCI-N87 cells assessed as inhibition of cell growth incubated for 72 hrs by Celltiter-Glo assay; format: functional, cell-based; conditions: NCI-N87, 72 h
[5] = Oral bioavailability in ICR mouse at 10 mg/kg measured upto 1440 mins by LC/MS/MS analysis; format: ADME, organism-based; conditions: in vivo
[6] = Volume of distribution at steady state in Sprague-Dawley rat at 3 mg/kg, iv measured upto 1440 mins by LC/MS/MS analysis; format: ADME, organism-based; conditions: in vivo, read-out: Vdss
[7] = Cmax in Sprague-Dawley rat at 10 mg/kg, po measured upto 1440 mins by LC/MS/MS analysis; format: ADME, organism-based; design: time < 1440 min, dose 10 mg/kg, route po; conditions: in vivo
[8] = Clearance in ICR mouse at 3 mg/kg, iv measured upto 1440 mins by LC/MS/MS analysis; format: ADME, organism-based; conditions: in vivo
[9] = Half life in Sprague-Dawley rat at 3 mg/kg, iv measured upto 1440 mins by LC/MS/MS analysis; format: ADME, organism-based; conditions: in vivo
[10] = Tmax in Sprague-Dawley rat at 10 mg/kg, po measured upto 1440 mins by LC/MS/MS analysis; format: ADME, organism-based; conditions: in vivo
[11] = AUC (0 to t) in Sprague-Dawley rat at 10 mg/kg, po measured upto 1440 mins by LC/MS/MS analysis; format: ADME, organism-based; design: dose 10 mg/kg, time < 1440 min, route po; conditions: in vivo
[12] = Oral bioavailability in Sprague-Dawley rat at 10 mg/kg measured upto 1440 mins by LC/MS/MS analysis; format: ADME, organism-based; conditions: in vivo
[13] = Half life in Sprague-Dawley rat at 10 mg/kg, po measured upto 1440 mins by LC/MS/MS analysis; format: ADME, organism-based; conditions: in vivo
[14] = AUC (0 to t) in ICR mouse at 10 mg/kg, po measured upto 1440 mins by LC/MS/MS analysis; format: ADME, organism-based; design: time < 1440 min, dose 10 mg/kg, route po; conditions: in vivo
[15] = Tmax in ICR mouse at 10 mg/kg, po measured upto 1440 mins by LC/MS/MS analysis; format: ADME, organism-based; conditions: in vivo
[16] = Clearance in Sprague-Dawley rat at 3 mg/kg, iv measured upto 1440 mins by LC/MS/MS analysis; format: ADME, organism-based; conditions: in vivo
[17] = Cmax in ICR mouse at 10 mg/kg, po measured upto 1440 mins by LC/MS/MS analysis; format: ADME, organism-based; design: dose 10 mg/kg, time < 1440 min, route po; conditions: in vivo
[18] = Half life in ICR mouse at 10 mg/kg, po measured upto 1440 mins by LC/MS/MS analysis; format: ADME, organism-based; conditions: in vivo
[19] = Half life in ICR mouse at 3 mg/kg, iv measured upto 1440 mins by LC/MS/MS analysis; format: ADME, organism-based; conditions: in vivo
[20] = Volume of distribution at steady state in ICR mouse at 3 mg/kg, iv measured upto 1440 mins by LC/MS/MS analysis; format: ADME, organism-based; conditions: in vivo, read-out: Vdss

Chain of Receptor tyrosine-protein kinase erbB-2 (P04626 whole entry): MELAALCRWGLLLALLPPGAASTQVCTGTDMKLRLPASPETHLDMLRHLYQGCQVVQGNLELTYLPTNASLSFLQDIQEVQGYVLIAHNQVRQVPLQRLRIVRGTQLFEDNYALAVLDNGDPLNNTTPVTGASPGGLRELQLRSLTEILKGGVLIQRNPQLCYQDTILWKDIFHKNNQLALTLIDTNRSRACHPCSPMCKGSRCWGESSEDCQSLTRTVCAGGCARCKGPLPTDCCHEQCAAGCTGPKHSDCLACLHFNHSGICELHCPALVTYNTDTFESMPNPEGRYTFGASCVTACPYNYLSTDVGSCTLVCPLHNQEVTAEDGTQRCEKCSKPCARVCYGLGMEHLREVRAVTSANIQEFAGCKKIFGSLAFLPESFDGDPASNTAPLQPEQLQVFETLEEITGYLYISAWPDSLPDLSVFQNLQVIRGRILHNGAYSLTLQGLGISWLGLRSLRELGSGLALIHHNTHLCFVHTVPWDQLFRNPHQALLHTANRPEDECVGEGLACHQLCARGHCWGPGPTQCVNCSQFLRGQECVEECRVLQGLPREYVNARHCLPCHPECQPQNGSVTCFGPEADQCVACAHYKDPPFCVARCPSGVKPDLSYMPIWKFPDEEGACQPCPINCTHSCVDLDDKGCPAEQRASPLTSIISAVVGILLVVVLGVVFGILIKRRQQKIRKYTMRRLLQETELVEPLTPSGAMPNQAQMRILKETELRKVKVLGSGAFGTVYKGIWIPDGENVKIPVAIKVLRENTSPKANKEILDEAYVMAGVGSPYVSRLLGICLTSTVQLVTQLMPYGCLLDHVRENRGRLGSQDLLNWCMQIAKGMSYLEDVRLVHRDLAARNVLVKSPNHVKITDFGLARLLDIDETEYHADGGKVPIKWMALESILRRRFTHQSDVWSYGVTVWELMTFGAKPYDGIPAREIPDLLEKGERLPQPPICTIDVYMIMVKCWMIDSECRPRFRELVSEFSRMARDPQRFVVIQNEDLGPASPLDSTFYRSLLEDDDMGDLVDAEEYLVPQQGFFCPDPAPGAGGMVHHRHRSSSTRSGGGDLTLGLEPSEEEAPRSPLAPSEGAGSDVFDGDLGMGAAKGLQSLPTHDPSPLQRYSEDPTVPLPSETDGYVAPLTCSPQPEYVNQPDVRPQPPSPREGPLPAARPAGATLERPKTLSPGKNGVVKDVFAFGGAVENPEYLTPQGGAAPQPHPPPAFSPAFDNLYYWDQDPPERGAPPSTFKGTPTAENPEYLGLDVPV

CCOc1cc2ncnc(Nc3ccc(Oc4cc5nncn5cn4)c(C)c3)c2cc1NC(=O)/C(F)=C\[C@H]1CCCN1C
IC50 [1]: 7.3 nM | IC50 (BT-474): 3.36 nM | microsomal CLint at 1 µM [2]: 24.2 µL/min/mg | IC50 [3]: 86.3 nM | half-life at 1 µM [4]: 0.954 h

C=CC(=O)Nc1cc2c(Nc3ccc(Oc4cc5nncn5cn4)c(C)c3)ncnc2cc1OCC
IC50 [1]: 1.93 nM | IC50 (BT-474): 4.69 nM | IC50 (NCI-N87): 51.9 nM | IC50 [3]: 1.47 nM

Cc1cc(Nc2ncnc3ccc(NC(=O)/C=C/CN(C)C)cc23)ccc1Oc1cc2nncn2cn1
IC50 [1]: 2.85 nM | IC50 (BT-474): 8.05 nM | IC50 (NCI-N87): 11.7 nM | IC50 [3]: 2.13 nM

CCOc1cc2ncnc(Nc3ccc(Oc4cc5nncn5cn4)c(C)c3)c2cc1NC(=O)/C(F)=C/[C@@H]1CCCN1C
IC50 [1]: 3.38 nM | IC50 (BT-474): 2.65 nM | microsomal CLint at 1 µM [2]: 16.9 µL/min/mg | IC50 (NCI-N87): 1.55 nM | IC50 [3]: 32.1 nM | half-life at 1 µM [4]: 1.37 h

Cc1cc(Nc2ncnc3cc(O)c(NC(=O)/C=C/[C@H]4CCCN4C)cc23)ccc1Oc1cc2nccn2cn1
IC50 [1]: 1.06 nM | IC50 (BT-474): 5.59 nM | IC50 (NCI-N87): 41.7 nM | IC50 [3]: 1.11 nM

Cc1cc(Nc2ncnc3ccc(NC(=O)/C=C/[C@H]4CCCN4C)cc23)ccc1Oc1cc2nncn2cn1
IC50 [1]: 1.4 nM | IC50 (BT-474): 3.06 nM | IC50 (NCI-N87): 2.17 nM | IC50 [3]: 1.19 nM

Cc1cc(Nc2c(C#N)cnc3ccc(NC(=O)/C=C/CN(C)C)cc23)ccc1Oc1cc2nncn2cn1
IC50 [1]: 62.3 nM | IC50 (BT-474): 14.9 nM | IC50 (NCI-N87): 19.2 nM | IC50 [3]: 20.7 nM

Cc1cc(Nc2ncnc3cc(O)c(NC(=O)/C=C/[C@H]4CCCN4C)cc23)ccc1Oc1ccn2cnnc2c1
IC50 [1]: 6.31 nM | IC50 (BT-474): 26.8 nM | IC50 (NCI-N87): 32.9 nM | IC50 [3]: 22.7 nM

CCOc1cc2ncnc(Nc3ccc(Oc4cc5nncn5cn4)c(C)c3)c2cc1NC(=O)/C(F)=C\[C@@H]1CCCN1C
IC50 [1]: 3.68 nM | bioavailability [5]: 34.4% | IC50 (BT-474): 1.75 nM | Vd [6]: 23.6 L/kg | Cmax [7]: 30 ng/mL | IC50 (NCI-N87): 0.56 nM | clearance [8]: 90 mL/min/kg | half-life [9]: 6.62 h | Tmax [10]: 2.67 h | AUC(0-t) at 24 h [11]: 170 ng·h/mL | IC50 [3]: 25.9 nM | bioavailability [12]: 13.7% | half-life [13]: 4.14 h | AUC(0-t) at 24 h [14]: 630 ng·h/mL | Tmax [15]: 0.42 h | clearance [16]: 80.8 mL/min/kg | Cmax [17]: 290 ng/mL | half-life [18]: 0.87 h | half-life [19]: 1.16 h | Vd [20]: 4.49 L/kg

C=C(F)C(=O)Nc1cc2c(Nc3ccc(Oc4cc5nncn5cn4)c(C)c3)ncnc2cc1OCC
IC50 [1]: 4.05 nM | IC50 (BT-474): 3.88 nM | microsomal CLint at 1 µM [2]: 40 µL/min/mg | IC50 (NCI-N87): 6.56 nM | IC50 [3]: 9.6 nM | half-life at 1 µM [4]: 0.578 h

CCOc1cc2ncnc(Nc3ccc(Oc4cc5nncn5cn4)c(C)c3)c2cc1NC(=O)/C=C/[C@H]1CCCN1C
IC50 [1]: 1.67 nM | bioavailability [5]: 22.6% | IC50 (BT-474): 2.13 nM | microsomal CLint at 1 µM [2]: 1.81 µL/min/mg | Vd [6]: 10.6 L/kg | Cmax [7]: 280 ng/mL | IC50 (NCI-N87): 1.12 nM | clearance [8]: 22 mL/min/kg | half-life [9]: 2.09 h | Tmax [10]: 4 h | AUC(0-t) at 24 h [11]: 2170 ng·h/mL | IC50 [3]: 1.36 nM | half-life at 1 µM [4]: 12.9 h | bioavailability [12]: 47.5% | half-life [13]: 4.32 h | AUC(0-t) at 24 h [14]: 1700 ng·h/mL | Tmax [15]: 1.67 h | clearance [16]: 55.5 mL/min/kg | Cmax [17]: 400 ng/mL | half-life [18]: 3.07 h | half-life [19]: 4.38 h | Vd [20]: 2.79 L/kg
